Measured values published in US20160046620A1, “METHODS OF CONTROLLING NEONICOTINOID RESISTANT PESTS” (SYNGENTA PARTICIPATIONS AG, priority 2013, published 2016).

Test system: Orius laevigatus
Assay: Safety to beneficial species: test on Orius laevigatus on treated french bean leaf discs
Format: in vivo
Settings: Orius laevigatus adults; for Corrected Mortality (%) 2 DAI: 2 days after infestation; for Corrected Mortality (%) 4 DAI: 4 days after infestation
Protocol: Phaseolus vulgaris var. Fulvio (french bean) plants were reduced to one leaf. With the leaves held in a horizontal position, a track sprayer was used to treat the plants at a rate corresponding to […]. Once dry, leaf discs were collected from the plants and placed treated side up in petri dishes containing 1% water agar.
A paper triangle was added for shelter, and a suitable amount of Ephestia eggs were added as a food supply. Five (5) Orius laevigatus (predatory bug, Syngenta Bioline) adults were added and the dishes closed with a cotton filter and perforated plastic lid. The dishes were incubated in a climate chamber at 25° C., 75% relative humidity, 16:8 h light/dark regime.
Six replicates were provided for each treatment and concentration level. The number of living and dead Orius laevigatus were counted two and four days after infestation (DAI). At the day two evaluation the food supply was replenished.

| Structure (SMILES) | Corrected Mortality (%) 2 DAI (50 ppm) [%] | Corrected Mortality (%) 4 DAI (50 ppm) [%] | Corrected Mortality (%) 2 DAI (100 ppm) [%] | Corrected Mortality (%) 4 DAI (100 ppm) [%] | Corrected Mortality (%) 2 DAI (200 ppm) [%] | Corrected Mortality (%) 4 DAI (200 ppm) [%] |
| --- | --- | --- | --- | --- | --- | --- |
| O=[N+]([O-])NC1=NCCN1Cc1ccc(Cl)nc1 [Imidacloprid, reference compound] | 11 | 30 | 43 | 65 | 75 | 100 |
| C#CCN1[C@@H]2CC[C@H]1C[C@](C#N)(c1cncc(C#N)c1)C2 [Compound 1.074, (1S,3S,5R)-3-(5-cyano-pyridin-3-yl)-8-prop-2-ynyl-8-aza-bicyclo[3.2.1]octane-3-carbonitrile] | 4 | 4 | 0 | 0 | 7 | 39 |
| N#Cc1cncc([C@]2(C#N)C[C@H]3CC[C@@H](C2)N3CC(F)(F)F)c1 [Compound 1.085] | 0 | 9 | 0 | 9 | 0 | 22 |
